Test results: PubChem BioAssay AID248 (DTP/NCI, 2004)
“And” between values parts separate entries of the source, which are not always exact repeats. Identical values can stand only once. Inconclusive results and toxic doses are left out. Cut-off read from the data, not from the text of the source: active = T/C of 150% or more; inactive = T/C below 125%.

Test system: L1210 leukemia ip in BDF1 mice, survival T/C
Test: NCI In Vivo Anticancer Drug Screen. Data for tumor model L1210 Leukemia (intraperitoneal) in B6D2F1 (BDF1) mice
Conditions: endpoint: mean survival time, higher = longer survival
How it was run: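 Tumor was transplanted into mice, which were then dosed with test compound or vehicle alone. Survival was recorded for each group, and the treated figure was expressed relative to the control figure.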

[1] = dose: 100.0 mg/kg/injection, schedule: Q04DX003 (ip), vehicle: water
[2] = dose: 200.0 mg/kg/injection, schedule: Q04DX003 (ip), vehicle: water
[3] = dose: 400.0 mg/kg/injection, schedule: Q04DX003 (ip), vehicle: water
[4] = dose: 100.0 mg/kg/injection, schedule: Q01DX001 (ip), vehicle: Klucel (hydroxypropylcellulose) (HPC)
[5] = dose: 200.0 mg/kg/injection, schedule: Q01DX001 (ip), vehicle: Klucel (hydroxypropylcellulose) (HPC)
[6] = dose: 400.0 mg/kg/injection, schedule: Q01DX001 (ip), vehicle: Klucel (hydroxypropylcellulose) (HPC)
[7] = dose: 100.0 mg/kg/injection, schedule: Q01DX009 (ip), vehicle: Klucel (hydroxypropylcellulose) (HPC)
[8] = dose: 100.0 mg/kg/injection, schedule: Q04DX003 (ip), vehicle: Klucel (hydroxypropylcellulose) (HPC)
[9] = dose: 200.0 mg/kg/injection, schedule: Q01DX009 (ip), vehicle: Klucel (hydroxypropylcellulose) (HPC)
[10] = dose: 200.0 mg/kg/injection, schedule: Q04DX003 (ip), vehicle: Klucel (hydroxypropylcellulose) (HPC)
[11] = dose: 400.0 mg/kg/injection, schedule: Q04DX003 (ip), vehicle: Klucel (hydroxypropylcellulose) (HPC)
[12] = dose: 100.0 mg/kg/injection, schedule: Q01DX009 (ip), vehicle: saline with Tween-80
[13] = dose: 200.0 mg/kg/injection, schedule: Q01DX009 (ip), vehicle: saline with Tween-80
[14] = dose: 100.0 mg/kg/injection, schedule: Q01DX001 (ip), vehicle: carboxymethylcellulose (CMC)
[15] = dose: 200.0 mg/kg/injection, schedule: Q01DX001 (ip), vehicle: carboxymethylcellulose (CMC)
[16] = dose: 100.0 mg/kg/injection, schedule: Q04DX003 (ip), vehicle: saline with Tween-80
[17] = dose: 200.0 mg/kg/injection, schedule: Q04DX003 (ip), vehicle: saline with Tween-80
[18] = dose: 400.0 mg/kg/injection, schedule: Q04DX003 (ip), vehicle: saline with Tween-80
[19] = dose: 100.0 mg/kg/injection, schedule: Q01DX001 (ip), vehicle: saline with Tween-80
[20] = dose: 200.0 mg/kg/injection, schedule: Q01DX001 (ip), vehicle: saline with Tween-80

Measured: T/C

CC(=O)NCCc1ccc(NCCCc2c(-c3ccccc3)nc(N)[nH]c2=O)cc1
inactive: dose: 100.0 mg/kg/injection, schedule: Q01DX009 (ip), vehicle: saline 97 % of control | dose: 200.0 mg/kg/injection, schedule: Q01DX009 (ip), vehicle: saline 95 % of control | dose: 400.0 mg/kg/injection, schedule: Q01DX009 (ip), vehicle: saline 101 % of control

C[CH2][Pb]([CH2]C)([CH2]C)[O]C(=O)COc1ccccc1
inactive: dose: 0.75 mg/kg/injection, schedule: Q01DX009 (ip), vehicle: Klucel (hydroxypropylcellulose) (HPC) 98 % of control | dose: 0.75 mg/kg/injection, schedule: Q04DX003 (ip), vehicle: saline with Tween-80 96 % of control | dose: 1.5 mg/kg/injection, schedule: Q01DX009 (ip), vehicle: Klucel (hydroxypropylcellulose) (HPC) 95 % of control | dose: 1.5 mg/kg/injection, schedule: Q04DX003 (ip), vehicle: saline with Tween-80 95 % of control | dose: 3.0 mg/kg/injection, schedule: Q01DX009 (ip), vehicle: Klucel (hydroxypropylcellulose) (HPC) 106 % of control | dose: 3.0 mg/kg/injection, schedule: Q04DX003 (ip), vehicle: saline with Tween-80 101 % of control | dose: 6.0 mg/kg/injection, schedule: Q01DX009 (ip), vehicle: Klucel (hydroxypropylcellulose) (HPC) 102 % of control | dose: 6.0 mg/kg/injection, schedule: Q04DX003 (ip), vehicle: saline with Tween-80 91 % of control | dose: 12.0 mg/kg/injection, schedule: Q04DX003 (ip), vehicle: saline with Tween-80 101 % of control | dose: 12.5 mg/kg/injection, schedule: Q04DX002 (ip), vehicle: Klucel (hydroxypropylcellulose) (HPC) 103 % of control | dose: 25.0 mg/kg/injection, schedule: Q04DX002 (ip), vehicle: Klucel (hydroxypropylcellulose) (HPC) 97 % of control

CN1CC(C)(C)C(O)c2ccccc21 (stereo not drawn)
inactive: dose: 25.0 mg/kg/injection, schedule: Q04DX002 (ip), vehicle: other 100 % of control | dose: 50.0 mg/kg/injection, schedule: Q04DX002 (ip), vehicle: other 90 % of control | dose: 100.0 mg/kg/injection, schedule: Q04DX002 (ip), vehicle: other 107 % of control

CCCCNC(C)(C)CCl
inactive: dose: 25.0 mg/kg/injection, schedule: Q01DX009 (ip), vehicle: saline 103 % of control | dose: 25.0 mg/kg/injection, schedule: Q04DX003 (ip), vehicle: water 110 % of control | dose: 50.0 mg/kg/injection, schedule: Q01DX009 (ip), vehicle: saline 102 % of control | dose: 50.0 mg/kg/injection, schedule: Q01DX009 (ip), vehicle: water 91 % of control | dose: 50.0 mg/kg/injection, schedule: Q04DX003 (ip), vehicle: water 116 % of control | dose: 100.0 mg/kg/injection, schedule: Q01DX001 (ip), vehicle: saline 104 % of control | [1] 98 % of control and 102 % of control

COc1ccc(C(=O)/C=C/c2ccc(OCc3ccccc3)c(OC)c2)cc1OC
inactive: [1] 93 % of control | [2] 93 % of control | [3] 91 % of control

Cc1nc[nH]c(=O)c1CCC(C)C
inactive: [4] 107 % of control | [5] 105 % of control | [6] 100 % of control

Cc1nc(N)[nH]c(=O)c1NC(=O)CCc1ccccc1
inactive: dose: 6.25 mg/kg/injection, schedule: Q01DX001 (ip), vehicle: saline with Tween-80 105 % of control | dose: 12.5 mg/kg/injection, schedule: Q01DX001 (ip), vehicle: saline with Tween-80 101 % of control | dose: 25.0 mg/kg/injection, schedule: Q01DX001 (ip), vehicle: saline with Tween-80 98 % of control

COc1ccc(/C=C/C(=O)c2ccccc2)cc1OC
inactive: dose: 50.0 mg/kg/injection, schedule: Q01DX009 (ip), vehicle: Klucel (hydroxypropylcellulose) (HPC) 92 % of control and 103 % of control | [7] 105 % of control and 108 % of control | [8] 104 % of control | [1] 93 % of control | [9] 99 % of control and 95 % of control | [10] 98 % of control | [2] 102 % of control | dose: 400.0 mg/kg/injection, schedule: Q01DX009 (ip), vehicle: Klucel (hydroxypropylcellulose) (HPC) 93 % of control | [11] 91 % of control | [3] 96 % of control

O=C(O)CSC1(SCC(=O)O)CCCCC1
inactive: [4] 103 % of control | [5] 97 % of control | [6] 97 % of control

C=CCC1(CCCC)C(=O)NC(=O)NC1=O
inactive: dose: 75.0 mg/kg/injection, schedule: Q01DX001 (ip), vehicle: saline 89 % of control | dose: 150.0 mg/kg/injection, schedule: Q01DX001 (ip), vehicle: saline 105 % of control

CCCCCCCCCCC(=O)CC
inactive: [12] 102 % of control | [13] 104 % of control | dose: 400.0 mg/kg/injection, schedule: Q01DX009 (ip), vehicle: saline with Tween-80 113 % of control

CC(=C=CC(c1ccccc1)(c1ccccc1)c1ccccc1)CC(c1ccccc1)(c1ccccc1)c1ccccc1
inactive: [8] 96 % of control | [10] 95 % of control | [11] 95 % of control

NC(=S)N/N=C/c1ccc(C(F)(F)F)cn1
inactive: dose: 13.3 mg/kg/injection, schedule: Q04DX003 (ip), vehicle: saline with Tween-80 108 % of control | dose: 20.0 mg/kg/injection, schedule: Q04DX003 (ip), vehicle: saline with Tween-80 103 % of control | dose: 30.0 mg/kg/injection, schedule: Q04DX003 (ip), vehicle: saline with Tween-80 113 % of control | dose: 45.0 mg/kg/injection, schedule: Q04DX003 (ip), vehicle: saline with Tween-80 112 % of control | dose: 67.5 mg/kg/injection, schedule: Q04DX003 (ip), vehicle: saline with Tween-80 111 % of control

CC1(C)N=C(N)N=C(N)N1c1cccc(Oc2ccc(N)cc2)c1
inactive: dose: 25.0 mg/kg/injection, schedule: Q04DX003 (ip), vehicle: Klucel (hydroxypropylcellulose) (HPC) 103 % of control | dose: 50.0 mg/kg/injection, schedule: Q04DX003 (ip), vehicle: Klucel (hydroxypropylcellulose) (HPC) 110 % of control

Clc1ccc(C(c2ccc(Cl)cc2)c2ccccn2)cc1
inactive: [7] 92 % of control | [8] 98 % of control | [9] 97 % of control | [10] 95 % of control | [11] 97 % of control

N=C(N)SC1c2cc(Cl)ccc2-c2c(Cl)cc(Cl)cc21 (stereo not drawn)
inactive: [14] 94 % of control | [15] 92 % of control

CCCCN=Cc1ccccc1
inactive: [12] 114 % of control | [16] 96 % of control | [13] 90 % of control | [17] 87 % of control | [18] 103 % of control

CCOC(=O)c1cnc(SC)nc1NNc1ccc([N+](=O)[O-])cc1
inactive: [19] 90 % of control | [20] 92 % of control

COC1(OC)C2(Cl)C=CC1(Cl)C1CC12 (stereo not drawn)
inactive: dose: 100.0 mg/kg/injection, schedule: Q04DX002 (ip), vehicle: Klucel (hydroxypropylcellulose) (HPC) 97 % of control | dose: 200.0 mg/kg/injection, schedule: Q04DX002 (ip), vehicle: Klucel (hydroxypropylcellulose) (HPC) 107 % of control | dose: 400.0 mg/kg/injection, schedule: Q04DX002 (ip), vehicle: Klucel (hydroxypropylcellulose) (HPC) 100 % of control

COc1cc(CCCc2ccc(O)c(=O)cc2)cc(OC)c1OC
inactive: [16] 111 % of control | [17] 94 % of control | [18] 94 % of control

Nc1ncnc(N)c1N
inactive: [19] 104 % of control | [20] 105 % of control | dose: 400.0 mg/kg/injection, schedule: Q01DX001 (ip), vehicle: saline with Tween-80 98 % of control

CCCCCCCCCCCCCCN=C(N)N
inactive: dose: 50.0 mg/kg/injection, schedule: Q01DX001 (ip), vehicle: carboxymethylcellulose (CMC) 105 % of control | [14] 97 % of control | [15] 97 % of control | dose: 400.0 mg/kg/injection, schedule: Q01DX001 (ip), vehicle: carboxymethylcellulose (CMC) 94 % of control
